Results taken from US5948750A, “Conjugates useful in the treatment of prostate cancer” (priority 1997, dated 1999).
Like-named read-outs stand apart in the source and are kept apart here. Square brackets hold non-standard residues; d marks the D form. Peptide text beside a SMILES is read from it. * marks the point of attachment. Doxorubicin(3'-N) = COc1cccc2c1C(=O)c1c(O)c3c(c(O)c1C2=O)C[C@@](O)(C(=O)CO)C[C@@H]3O[C@H]1C[C@H](N*)[C@H](O)[C@H](C)O1; Decanoyl(3,6,9-trioxa) = COCCOCCOCC(=O)*; Hyp = O=C(O)[C@@H]1C[C@@H](O)CN1; Chg = N[C@H](C(=O)O)C1CCCCC1; ΔPro = O=C(O)[C@@H]1C=CCN1

Experiments:
[1] = target: T1, free PSA (Homo sapiens, UniProt P07288); assay: Recognition of oligopeptide-doxorubicin conjugates by free PSA (HPLC cleavage assay); assay type: biochemical; settings: conjugate to PSA molar ratio 100 to 1; enzymatically active free PSA
T1 construct: required for 50% cleavage of the noted oligopeptides with enzymatically active free PSA
T1 sequence (P07288 25-261): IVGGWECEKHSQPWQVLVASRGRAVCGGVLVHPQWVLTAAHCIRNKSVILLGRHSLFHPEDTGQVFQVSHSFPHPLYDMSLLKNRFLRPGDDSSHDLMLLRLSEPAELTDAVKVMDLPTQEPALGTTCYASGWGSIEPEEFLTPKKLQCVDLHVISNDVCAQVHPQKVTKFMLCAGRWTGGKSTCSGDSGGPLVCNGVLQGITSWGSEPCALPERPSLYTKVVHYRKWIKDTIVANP
Protocol: The conjugates prepared as described in Examples 3-5 were individually dissolved in PSA digestion buffer (12 mM tris(hydroxymethyl)-aminomethane pH 8.0, 25 mM NaCl, 0.5 mM CaCl2) and the solution added to PSA at a molar ration of 100 to 1. Alternatively, the PSA digestion buffer utilized is 50 mM tris(hydroxymethyl)-aminomethane pH 7.4, 140 mM NaCl. The reaction is quenched after various reaction times by the addition of trifluoroacetic acid (TFA) to a final 1% (volume/volume). Alternatively the reaction is quenched with 10 mM ZnCl2. The quenched reaction was analyzed by HPLC on a reversed-phase C18 column using an aqueous 0.1% TFA/acetonitrile gradient. […] If no salt is indicated for the conjugate, the free conjugate was tested. The oligopeptide-cytotoxic agent conjugates described in Examples 4 and 5 were assessed for the amount of time (in minutes) required for 50% cleavage of the oligopeptide with enzymatically active free PSA and 50% cleavage occurred in less than 2 hours for those conjugates.

[2] = system: LNCap prostate tumor cells (which express enzymatically active PSA); assay: In vitro cytotoxicity of peptidyl derivatives of doxorubicin, Alamar Blue assay, LNCaP; assay type: cell-based; settings: 72 HRS (3 days at 37° C.), read-out: LNCaP Cell Kill in 72 HRS EC 50
Protocol: (§1) The cytotoxicities of the cleaveable oligopeptide-doxorubicin conjugates, prepared as described in Examples 3 and 4, against a line of cells which is known to be killed by unmodified doxorubicin were assessed with an Alamar Blue assay. Specifically, cell cultures of LNCap prostate tumor cells (which express enzymatically active PSA) or DuPRO cells in 96 well plates was diluted with medium (Dulbecco's […]-α[MEM-α]) containing various concentrations of a given conjugate (final plate well volume of 200 μl). The cells were incubated for 3 days at 37° C., 20 μl of Alamar Blue is added to the assay well. The cells were further incubated and the assay plates were read on a EL-310 ELISA reader at the dual wavelengths of 570 and 600 nm at 4 and 7 hours after addition of Alamar Blue. Relative percentage viability at the various concentration of conjugate tested was then calculated versus control (no conjugate) cultures. If no salt is indicated, the free conjugate was tested.

[3] = system: DuPRO cells; assay: In vitro cytotoxicity of peptidyl derivatives of doxorubicin, Alamar Blue assay, DuPRO; assay type: cell-based; settings: 72 HRS, read-out: DUPRO Cell Kill in 72 HRS EC 50
Protocol: as §1

[4] = target: T1, free PSA; assay type: biochemical; settings: for Substrate cleavage by PSA at 3 hours: oligopeptide to PSA molar ratio 100 to 1; for Time to 50% Substrate Cleavage by PSA: free psa
Protocol: The oligopeptides prepared as described in Example 1 were individually dissolved in PSA digestion buffer (12 mM tris(hydroxymethyl)-aminomethane pH 8.0, 25 mM NaCl, 0.5 mM CaCl2) and the solution added to PSA at a molar ration of 100 to 1. Alternatively, the PSA digestion buffer utilized is 50 mM tris(hydroxymethyl)-aminomethane pH 7.4, 140 mM NaCl. The reaction is quenched after various reaction times by the addition of trifluoroacetic acid (TFA) to a final 1% (volume/volume). Alternatively the reaction is quenched with 10 mM ZnCl2. The quenched reaction was analyzed by HPLC on a reversed-phase C18 column using an aqueous 0.1% TFA/acetonitrile gradient. […] Oligopeptides containing free amine moieties (ie. comprising hArg, Orn, Lys and or 3PAL) were tested as TFA salts. All other oligopeptides were tested as neutral compounds.

Compound | Time to 50% Substrate Cleavage by PSA [1] [min] | Substrate cleavage by PSA at 3 hours [4] [%] | Time to 50% Substrate Cleavage by PSA [4] [min] | other results
COc1cccc2c1C(=O)c1c(O)c3c(c(O)c1C2=O)C[C@@](O)(C(=O)CO)C[C@@H]3O[C@H]1C[C@H](NC(=O)[C@H](CC(C)(C)C)NC(=O)[C@H](CO)NC(=O)[C@H](CCC(N)=O)NC(=O)[C@@H](NC(=O)[C@H](CO)NC(=O)[C@H](C)NC(=O)[C@@H]2C[C@@H](O)CN2C(C)=O)C2CCCCC2)[C@H](O)[C@H](C)O1 | 25 | – | – | –
COc1cccc2c1C(=O)c1c(O)c3c(c(O)c1C2=O)C[C@@](O)(C(=O)CO)C[C@@H]3O[C@H]1C[C@H](NC(=O)[C@H](CC(C)C)NC(=O)[C@H](CO)NC(=O)[C@H](CCC(N)=O)NC(=O)[C@@H](NC(=O)[C@H](CO)NC(=O)[C@H](C)NC(=O)[C@@H]2C[C@@H](O)CN2C(C)=O)C2CCCCC2)[C@H](O)[C@H](C)O1 (relative stereo) [Ac-(4-trans-L-Hyp)ASChgQ-SL-DOX (3'), [N-Ac-(4-trans-L-Hyp)]-Ala-Ser-Chg-Gln-Ser-Leu-Dox] | 20 | – | – | EC50 [2]: 4.5 µM; EC50 [3]: 90 µM
CC(=O)N1C[C@H](O)C[C@H]1C(=O)N[C@@H](C)C(=O)N[C@@H](CO)C(=O)N[C@H](C(=O)N[C@@H](CCC(N)=O)C(=O)N[C@@H](CO)C(=O)N1Cc2ccccc2C[C@H]1C(=O)O)C1CCCCC1 [Ac-(4-trans-L-Hyp)ASChgQ-S(TIC)-acid] | – | 16 | – | –
CC(=O)N1C[C@H](O)C[C@H]1C(=O)N[C@@H](C)C(=O)N[C@@H](CO)C(=O)N[C@H](C(=O)N[C@@H](CCC(N)=O)C(=O)N[C@@H](CO)C(=O)N[C@@H](CC(C)C)C(=O)O)C1CCCCC1 [Ac-(4-trans-L-Hyp)ASChgQ-SL-acid, [N-Ac-(4-trans-L-Hyp)]-Ala-Ser-Chg-Gln-Ser-Leu-OH] (Ac-[Hyp]AS[Chg]QSL-OH) | – | – | 75 | –
CC(=O)N1C[C@H](O)C[C@H]1C(=O)N[C@H](C(=O)N[C@@H](CCC(N)=O)C(=O)N[C@@H](CO)C(=O)N[C@@H](CO)C(=O)N[C@@H](CO)C(=O)N[C@@H](CC(C)C)C(=O)O)C1CCCCC1 [Ac-(4-trans-L-Hyp)ChgQ-SSSL-acid] (Ac-[Hyp][Chg]QSSSL-OH) | – | 0 | – | –
CC(=O)N1CC=C[C@H]1C(=O)N[C@@H](C)C(=O)N[C@@H](CO)C(=O)N[C@H](C(=O)N[C@@H](CCC(N)=O)C(=O)N[C@@H](CO)C(=O)N[C@@H](CC(C)C)C(=O)O)C1CCCCC1 [Ac-(Dehydro-Pro)-ASChgQ-SL-acid] (Ac-[ΔPro]AS[Chg]QSL-OH) | – | 28 | – | –
CC(=O)N1CCC[C@H]1C(=O)N[C@@H](C)C(=O)N[C@@H](CO)C(=O)N[C@H](C(=O)N[C@@H](CCC(N)=O)C(=O)N[C@@H](CO)C(=O)N[C@@H](CC(C)C)C(=O)O)C1CCCCC1 [Ac-PASChgQ-SL-acid] (Ac-PAS[Chg]QSL-OH) | – | – | 150 | –
CC(=O)N1CCC[C@H]1C(=O)N[C@@H](CO)C(=O)N[C@@H](CO)C(=O)N[C@H](C(=O)N[C@@H](CCC(N)=O)C(=O)N[C@@H](CO)C(=O)N[C@H](C(=O)O)C(C)C)C1CCCCC1 [Ac-PSSChgQ-SV-acid] | – | – | 120 | –
COCCOCCOCC(=O)N1C[C@H](O)C[C@H]1C(=O)N[C@@H](C)C(=O)N[C@@H](CO)C(=O)N[C@H](C(=O)N[C@@H](CCC(N)=O)C(=O)N[C@@H](CO)C(=O)N[C@@H](CC(C)C)C(=O)O)C1CCCCC1 [PEG(2)-(4-trans-L-Hyp)-ASChgQ-SL-acid] ({Decanoyl(3,6,9-trioxa)}-[Hyp]AS[Chg]QSL-OH) | – | 44 | – | –
COCCOCCOCC(=O)N1C[C@H](O)C[C@H]1C(=O)N[C@@H](C)C(=O)N[C@@H](CO)C(=O)N[C@H](C(=O)N[C@@H](CCC(N)=O)C(=O)N[C@@H](CO)C(=O)N[C@@H](CC(C)C)C(=O)N[C@H]1C[C@H](O[C@H]2C[C@](O)(C(=O)CO)Cc3c(O)c4c(c(O)c32)C(=O)c2c(OC)cccc2C4=O)O[C@@H](C)[C@H]1O)C1CCCCC1 [PEG(2)-(4-trans-L-Hyp)ASChgQ-SL-DOX (3')] ({Decanoyl(3,6,9-trioxa)}-[Hyp]AS[Chg]QSL-{Doxorubicin(3'-N)}) | 20 | – | – | –
